The text below walks through data of patent US20020041862A1 (priority 1999, published 2002).

Entries after “also recorded” stand apart in the source; their conditions may differ.

The target of assay [1] is T1, PrP^Sc in ScN2a cells (Mus musculus, UniProt P04925). The note with it: cited from earlier work.
The target in assay [2] is T1, PrP^Sc in ScN2a cells. The conditions noted are these: cited from earlier work. This is another data set of the same source.
Assay [3] addresses T1, PrP^Sc in ScN2a cells. The class given is cell-based.

T1 sequence (P04925 23-230 limits assumed): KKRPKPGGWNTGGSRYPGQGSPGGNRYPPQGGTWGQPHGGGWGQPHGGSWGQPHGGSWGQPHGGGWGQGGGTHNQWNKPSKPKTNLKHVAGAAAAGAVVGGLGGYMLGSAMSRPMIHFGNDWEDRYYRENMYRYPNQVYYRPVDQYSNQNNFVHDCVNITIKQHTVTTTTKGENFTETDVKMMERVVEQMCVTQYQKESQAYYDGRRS

On to `C[S+](C)[O-]` [DMSO, dimethyl sulfoxide], for which the “reduction of pre-existing PrP^Sc levels” value at PrP^Sc in ScN2a cells [1] is given as “cannot reduce pre-existing PrP^Sc levels”. For the same molecule, on PrP^Sc in ScN2a cells [2], the “formation of PrP^Sc” value was “inhibit the formation of new PrP^Sc”.

For `CCN(CC)CCCC(C)Nc1ccnc2cc(Cl)ccc12` (centres unmarked) [chloroquine], the “effect of lysosomotropic agent on ability of PEI to eliminate PrP^Sc” value at PrP^Sc in ScN2a cells [3] is on record as “blocked the ability of PEI to eliminate PrP^Sc; also recorded: clear bands for PrP^Sc”. At PrP^Sc in ScN2a cells [1], the “effect of lysosomotropic agent alone on PrP^Sc levels” value is recorded as “have no effect on PrP^Sc levels”. Moreover, the “formation of PrP^Sc” value on PrP^Sc in ScN2a cells [2] is reported as “do not interfere with the formation of PrP^Sc”.

Consider `OCC(O)CO` [glycerol], for which the “reduction of pre-existing PrP^Sc levels” value at PrP^Sc in ScN2a cells [1] is “cannot reduce pre-existing PrP^Sc levels”. For the same molecule, the “formation of PrP^Sc” value at PrP^Sc in ScN2a cells [2] is given as “inhibit the formation of new PrP^Sc”.

As for `CC[C@@]1([C@@H]2O[C@@H]([C@H]3O[C@@](O)(CO)[C@H](C)C[C@@H]3C)C[C@@H]2C)CC[C@H]([C@]2(C)CC[C@]3(C[C@H](O)[C@@H](C)[C@@H]([C@@H](C)[C@@H](OC)[C@H](C)C(=O)O)O3)O2)O1` [monensin], the “formation of PrP^Sc” value at PrP^Sc in ScN2a cells [2] was “do not interfere with the formation of PrP^Sc”.

Consider NH4Cl, for which the “effect of lysosomotropic agent on ability of PEI to eliminate PrP^Sc” value on PrP^Sc in ScN2a cells [3] is recorded as “failure of NH4Cl to affect PrP^Sc levels; also recorded: barely detectable amounts of PrP^Sc”. In addition, the “effect of lysosomotropic agent alone on PrP^Sc levels” value at PrP^Sc in ScN2a cells [1] is “have no effect on PrP^Sc levels”. Moreover, the “formation of PrP^Sc” value on PrP^Sc in ScN2a cells [2] was “do not interfere with the formation of PrP^Sc”.
